Measured values taken from patent US10227331B2 (priority 2015, dated 2019).
pIC50: −log10 of the molar value.

Experiments:
IMP-1 = IMP-1 (Serratia marcescens, UniProt P52699); assay: biochemical; format: biochemical; details: CCF2-FA substrate, 2 hours at 25° C; read-out: IMP-1 IC50
In short: (§1)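 Semi-log dose-response curves, fitted with a 4-parameter model, gave IC50s. The underlying signal was CCF2-FA fluorescence following 2 hours at 25° C with enzyme, substrate and inhibitor combined.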

NDM-1 = NDM-1 (Klebsiella pneumoniae, UniProt C7C422); assay: biochemical; format: biochemical; details: CCF2-FA substrate, 2 hours at 25° C; read-out: NDM-1 IC50
Chain of NDM-1 (C7C422 whole entry, looked up, species assumed): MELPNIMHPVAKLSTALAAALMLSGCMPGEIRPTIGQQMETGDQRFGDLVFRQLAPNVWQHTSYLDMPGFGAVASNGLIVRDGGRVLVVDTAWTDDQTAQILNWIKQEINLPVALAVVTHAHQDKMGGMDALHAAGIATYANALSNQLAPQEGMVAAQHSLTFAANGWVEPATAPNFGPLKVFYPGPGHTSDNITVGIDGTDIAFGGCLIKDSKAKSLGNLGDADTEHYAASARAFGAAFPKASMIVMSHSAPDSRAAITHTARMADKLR
In short: as §1

VIM-1 = VIM-1 (Pseudomonas aeruginosa (strain ATCC 15692 / DSM 22644 / CIP 104116 / JCM 14847 / LMG 12228 / 1C / PRS 101 / PAO1), UniProt A0A0F7KYQ8); assay: biochemical; details: CCF2-FA substrate, 2 hours at 25° C
In short: as §1

[1] = system: Escherichia coli expressing NDM-1 (CLB30005, CLB30016); format: cell-based; details: with imipenem 1 μg/ml; 95% inhibition of bacterial growth
In short: (§2)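 Restoration of imipenem susceptibility (1 μg/ml imipenem) was judged by absorbance after 22–24 h at 35° C. Test compound was added to bacteria suspended 1:100 in 1.1× CAMHB from overnight blood-agar cultures.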

[2] = system: Klebsiella pneumoniae expressing VIM-1 (IHMA599644); format: cell-based; details: with imipenem 1 μg/ml; 95% inhibition of bacterial growth
In short: as §2

[3] = system: Serratia marcescens expressing IMP-1 (CL5741); format: cell-based; details: with imipenem 1 μg/ml; 95% inhibition of bacterial growth
In short: as §2

[4] = system: P. aeruginosa expressing IMP-1, efflux+ (MB9798); format: cell-based, Pseudomonas aeruginosa; details: for P. aeruginosa expressing IMP-1, efflux+ (MB9798) MITC95: imipenem at 2 μg/mL, in the presence of a class A, C, D serine β-lactamase inhibitor closely related to relebactam; for Efflux ratio: ratio MITC95 PA_9798/MITC95 PA_9799
Source text: (§3) The strain background is Pseudomonas aeruginosa PAO1.

[5] = system: P. aeruginosa expressing IMP-1, efflux− (MB9799); assay: Efflux: concentration of MBL inhibitor which restores susceptibility to imipenem; format: cell-based, Pseudomonas aeruginosa; details: imipenem at 2 μg/mL, in the presence of a class A, C, D serine β-lactamase inhibitor closely related to relebactam
Source text: as §3

Chain of IMP-1 (P52699 whole entry, looked up, species assumed): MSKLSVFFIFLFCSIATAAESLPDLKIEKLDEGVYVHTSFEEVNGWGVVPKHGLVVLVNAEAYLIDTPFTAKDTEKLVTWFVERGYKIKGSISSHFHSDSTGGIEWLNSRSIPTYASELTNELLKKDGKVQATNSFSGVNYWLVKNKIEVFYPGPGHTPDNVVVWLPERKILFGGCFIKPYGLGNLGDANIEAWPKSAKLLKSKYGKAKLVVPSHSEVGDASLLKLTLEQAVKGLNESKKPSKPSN

| SMILES | pIC50 (IMP-1) | pIC50 (NDM-1) | pIC50 (VIM-1) | Escherichia coli expressing NDM-1 (CLB30016) MITC95 [1] | Klebsiella pneumoniae expressing VIM-1 (IHMA599644) MITC95 [2] | Serratia marcescens expressing IMP-1 (CL5741) MITC95 [3] | P. aeruginosa expressing IMP-1, efflux+ (MB9798) MITC95 [4] | Efflux ratio [4] | P. aeruginosa expressing IMP-1, efflux− (MB9799) MITC95 [5] |
| --- | --- | --- | --- | --- | --- | --- | --- | --- | --- |
| Cc1ccc(-c2ccc(S(C)(=O)=O)c(S(N)(=O)=O)c2-c2nn[nH]n2)c2nc(N)sc12 [Example 193, 3-(2-amino-7-methylbenzo[d]thiazol-4-yl)-6-(methylsulfonyl)-2-(2H-tetrazol-5-yl)benzenesulfonamide] | 10.03 | 9.86 | 9.97 | 3.125 µM | 6.25 µM | 1.563 µM | 6.25 µM | 4.00 | 1.563 µM |
| NCCCS(=O)(=O)c1ccc(-c2cccc3sc(N)nc23)c(-c2nn[nH]n2)c1S(N)(=O)=O [Example 194, 3-(2-aminobenzo[d]thiazol-4-yl)-6-(3-aminopropylsulfonyl)-2-(2H-tetrazol-5-yl)benzenesulfonamide] | 9.81 | 10.04 | 9.68 | 0.7813 µM | 1.563 µM | 0.7813 µM | 0.3906 µM | 0.50 | 0.7813 µM |
| Cn1c(N)nc2c(-c3ccc(S(=O)(=O)CCCN)c(S(N)(=O)=O)c3-c3nn[nH]n3)cccc21 [Example 195, 3-(2-amino-1-methyl-1H-benzo[d]imidazol-4-yl)-6-(3-aminopropylsulfonyl)-2-(2H-tetrazol-5-yl)benzenesulfonamide] | 9.60 | 9.58 | 9.81 | 0.3906 µM | 1.563 µM | 0.7813 µM | 0.7813 µM | 1.00 | 0.7813 µM |
| N#Cc1cccc(-c2ccc(S(=O)(=O)C3CNC3)c(S(N)(=O)=O)c2-c2nn[nH]n2)c1N [Example 196, 2′-amino-4-(azetidin-3-ylsulfonyl)-3′-cyano-2-(2H-tetrazol-5-yl)-[1,1′-biphenyl]-3-sulfonamide] | 8.81 | 9.50 | 9.63 | 0.7813 µM | 1.563 µM | 1.563 µM | 12.5 µM | 16.00 | 0.7813 µM |
| COC(=O)c1cccc(-c2ccc(S(=O)(=O)CCN)c(S(N)(=O)=O)c2-c2nn[nH]n2)c1N [Example 197, methyl 2-amino-4′-((2-aminoethyl)sulfonyl)-3′-sulfamoyl-2′-(2H-tetrazol-5-yl)-[1,1′-biphenyl]-3-carboxylate] | 9.26 | 9.25 | 9.58 | 0.7813 µM | 3.125 µM | 1.563 µM | 12.5 µM | 8.00 | 1.563 µM |
| NCCS(=O)(=O)c1ccc(-c2cccc3[nH]cnc23)c(-c2nn[nH]n2)c1S(N)(=O)=O [Example 198, 6-((2-aminoethyl)sulfonyl)-3-(1H-benzo[d]imidazol-4-yl)-2-(2H-tetrazol-5-yl)benzenesulfonamide] | 9.43 | 9.62 | 9.69 | 0.7813 µM | 1.563 µM | 1.563 µM | 0.7813 µM | 1.00 | 0.7813 µM |
| NCCS(=O)(=O)c1ccc(-c2cccc(C(=O)O)c2N)c(-c2nn[nH]n2)c1S(N)(=O)=O [Example 199, 2-Amino-4′-((2-aminoethyl)sulfonyl)-3′-sulfamoyl-2′-(2H-tetrazol-5-yl)-[1,1′-biphenyl]-3-carboxylic Acid] | 8.74 | 9.70 | 9.19 | 6.25 µM | 25 µM | 12.5 µM | 12.5 µM | 2.00 | 6.25 µM |
| NS(=O)(=O)c1c(S(=O)(=O)C2CNC2)ccc(-c2ccnc3[nH]nnc23)c1-c1nn[nH]n1 [Example 200, 3-(3H-[1,2,3]triazolo[4,5-b]pyridin-7-yl)-6-(azetidin-3-ylsulfonyl)-2-(2H-tetrazol-5-yl)benzenesulfonamide] | 7.86 | 8.25 | 7.67 | 25 µM | 100 µM | 25 µM | 100 µM | 4.00 | 25 µM |
| NS(=O)(=O)c1c(S(=O)(=O)C2CNC2)ccc(-c2cccc3scnc23)c1-c1nn[nH]n1 [Example 201, 6-(Azetidin-3-ylsulfonyl)-3-(benzo[d]thiazol-4-yl)-2-(2H-tetrazol-5-yl)benzenesulfonamide] | 9.82 | 10.02 | 9.75 | 0.7813 µM | 3.125 µM | 1.563 µM | 1.563 µM | 2.00 | 0.7813 µM |
| NCCS(=O)(=O)c1ccc(-c2cccc3c2nc(N)n3C2CNC2)c(-c2nn[nH]n2)c1S(N)(=O)=O [Example 202, 3-(2-amino-1-(azetidin-3-yl)-1H-benzo[d]imidazol-4-yl)-6-((2-aminoethyl)sulfonyl)-2-(2H-tetrazol-5-yl)benzenesulfonamide] | 9.07 | 8.53 | 8.96 | 1.563 µM | 3.125 µM | 3.125 µM | 6.25 µM | 4.00 | 1.563 µM |
| NC1CCC(c2ccc(S(=O)(=O)CC3CNC3)c(S(N)(=O)=O)c2-c2nnn[nH]2)CC1 (stereo not drawn) [Example 203, 3-(4-aminocyclohexyl)-6-((azetidin-3-ylmethyl)sulfonyl)-2-(1H-tetrazol-5-yl)benzenesulfonamide] | 7.64 | 7.95 | 9.23 | 3.125 µM | 1.563 µM | 1.563 µM | 3.125 µM | 4.00 | 0.7813 µM |
| NS(=O)(=O)c1c(S(=O)(=O)CC2CNC2)ccc([C@H]2CC[C@H](N)CC2)c1-c1nnn[nH]1 [Example 204, 3-((1r,4r)-4-aminocyclohexyl)-6-((azetidin-3-ylmethyl)sulfonyl)-2-(1H-tetrazol-5-yl)benzenesulfonamide] | 7.43 | 7.79 | 8.98 | 0.7813 µM | 1.563 µM | 1.563 µM | 1.563 µM | 2.00 | 0.7813 µM |
| NS(=O)(=O)c1c(S(=O)(=O)CC2CNC2)ccc([C@H]2CC[C@@H](N)CC2)c1-c1nnn[nH]1 [Example 205, 3-((1s, 4s)-4-aminocyclohexyl)-6-((azetidin-3-ylmethyl)sulfonyl)-2-(1H-tetrazol-5-yl)benzenesulfonamide] | 7.08 | 7.35 | 8.18 | 1.563 µM | 3.125 µM | 3.125 µM | 6.25 µM | 2.00 | 3.125 µM |
